Measured values published in patent US7196110B2, “N-substituted tricyclic 3-aminopyrazoles as inhibitors for the treatment of cell proliferative disorders” (Janssen Phamaceutica N.V., priority 2002, dated 2007).
Where two headings read alike, the source gives them in different places.

Assays:
H460 (lung) = test: Anti-cell proliferation in tumor cells (14C-thymidine incorporation), H460; assay type: cell-based
Method: The effect of compounds of the invention on cell proliferation in various tumor cells was tested based on incorporation of ^14C-thymidine into DNA of cells.
Similar to those described above in 3a, except that different cells, cell growth medium, and growth supplements were used. Human tumor cell lines derived from various human tissue origins (LoVo from colon, H460 from lung, T47D from breast, PC3 from prostate, A375 from melanoma, AsPC1 from pancreas) were obtained from the American Type Culture Collection (ATCC) and cultured under specified conditions required for each cell type, as provided by ATCC. Complete medium was obtained from Cellgro: Iscove's medium with 10% Fetal Bovine Serium (FBS) (Mediatech, Inc., Herndon, Va. 20171, Cat. No. 10-016-CV).
Tumor cells were seeded at approx. 3000–8000 cells per well in a volume of 100 μl of complete medium. Cells were grown for 24 hours in complete medium, and 1 μl of test compound was serially diluted in 100% DMSO and added to each well. For maximum growth control wells, only 1 μl of 100% DMSO was added. After 24 hours incubation, 20 μl of ^14C-thymidine master mix was added to each well and the ^14C-thymidine master mix was pepared according to the following regimen:
Cells were incubated for an additional 24 hours at 37° C. in medium containing test compound and ^14C-thymidine. Then, the reaction mixture was discarded and the plate was washed 2 times each with 200 μl PBS. Subsequently, each well on the plate was filled with 200 μl of PBS. The top of the plate was sealed with transparent plate sealer and white plate backing sealers were applied to the bottom of plates. The retained ^14C inside each well was measured using a Packard TopCount.
In order to test the potency of inhibition of the present compound, IC50 of an individual compound on the inhibition of tumor cell line proliferation was measured using the above procedure. As used herein, said IC50 refers to the concentration of the test compound at which the amount of tumor cell proliferation is reduced by one-half as compared to the maximum growth control wells without the compound.

c-Abl kinase = c-Abl kinase (Abelson murine leukemia virus, UniProt P00521); test: Inhibition of c-Abl kinase activity (cell-free, Abl peptide substrate, 33P Flashplate); assay type: biochemical; conditions: IC50 for the c-Abl kinase activity
Chain of c-Abl kinase (P00521 115-385): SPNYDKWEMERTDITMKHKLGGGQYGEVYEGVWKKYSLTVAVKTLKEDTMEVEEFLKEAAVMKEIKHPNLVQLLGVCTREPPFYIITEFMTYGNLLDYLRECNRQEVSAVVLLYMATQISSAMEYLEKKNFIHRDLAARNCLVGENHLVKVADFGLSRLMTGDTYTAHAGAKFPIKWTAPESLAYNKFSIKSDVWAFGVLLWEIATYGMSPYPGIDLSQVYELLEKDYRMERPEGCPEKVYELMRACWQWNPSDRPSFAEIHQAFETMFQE

[1] = Homo sapiens, NCI-H460; read-out: IC50 on cell proliferation, H460

Compound | IC50 (H460 (lung); [1]) | IC50 (c-Abl kinase) | IC50 (H460 (lung); Homo sapiens, NCI-H460, read-out: IC50 on cell proliferation, H460)
COC(=O)c1cccc(Nc2[nH]nc3c2Cc2cc(OC)c(OC)cc2-3)c1 [Compound 11, 3-(6,7-Dimethoxy-2,4-dihydro-indeno[1,2-c]pyrazol-3-ylamino)-benzoic acid methyl ester] | 33 nM | 118 nM | 
COc1cc2c(cc1OC)-c1n[nH]c(Nc3ccccc3F)c1C2 [Compound 12, (6,7-Dimethoxy-2,4-dihydro-indeno[1,2-c]pyrazol-3-yl)-(2-fluoro-phenyl)-amine] | 3 nM | 20 nM | 
COc1cc2c(cc1OC)-c1n[nH]c(Nc3cccc(F)c3)c1C2 [Compound 14, (3-Fluoro-phenyl)-(6,7-dimethoxy-2,4-dihydro-indeno[1,2-c]pyrazol-3-yl)-amine] |  |  | 10 nM
Cc1ccc2c(c1)-c1n[nH]c(Nc3ccccc3)c1C2 [Compound 22, (7-Methyl-2,4-dihydro-indeno[1,2-c]pyrazol-3-yl)-phenyl-amine] | 9270 nM | 19 nM | 
COc1cc2c(cc1OC)-c1n[nH]c(Nc3cccnc3)c1C2 [Compound 30, (6,7-Dimethoxy-2,4-dihydro-indeno[1,2-c]pyrazol-3-yl)-pyridin-3-yl-amine] | 290 nM | 491 nM | 
COc1ccc2c(c1)-c1n[nH]c(Nc3ccccc3)c1C2 [Compound 39, (7-Methoxy-2,4-dihydro-indeno[1,2-c]pyrazol-3-yl)-phenyl-amine] |  | 13 nM | 
COc1cc2c(cc1OC)-c1n[nH]c(NCc3ccccc3)c1C2 [Compound 63, Benzyl-(6,7-dimethoxy-2,4-dihydro-indeno[1,2-c]pyrazol-3-yl)-amine] | 3670 nM | 419 nM | 
COc1cccc(Nc2[nH]nc3c2Cc2cc4c(cc2-3)OCO4)c1 [Compound 97, (2,9-Dihydro-5,7-dioxa-2,3-diaza-cyclopenta[a]-s-indacen-1-yl)-(3-methoxy-phenyl)-amine] | 424 nM | 227 nM | 
CN1CCN(c2ccc3c(c2)Cc2c-3n[nH]c2Nc2cccc(Br)c2)CC1 [Compound 122, (3-Bromo-phenyl)-[6-(4-methyl-piperazin-1-yl)-2,4-dihydro-indeno[1,2-c]pyrazol-3-yl]-amine] | 14300 nM | 1260 nM | 
COC(=O)c1cccc(Nc2[nH]nc3c2Cc2cc(OCCCN4CCCC4)c(OC)cc2-3)c1 [Compound 157, 3-[7-Methoxy-6-(3-pyrrolidin-1-yl-propoxy)-2,4-dihydro-indeno[1,2-c]pyrazol-3-ylamino]-benzoic acid methyl ester] | 3590 nM | 371 nM | 
COc1cc2c(cc1OC)-c1n[nH]c(NCc3cc(Cl)ccc3Cl)c1C2 [Compound 330, (2,5-Dichloro-benzyl)-(6,7-dimethoxy-2,4-dihydro-indeno[1,2-c]pyrazol-3-yl)-amine] | 1200 nM | 91 nM | 
COc1cc2c(cc1OC)-c1c(c(Nc3cccc(F)c3)nn1C(=O)CO)C2 [Compound 432, 1-[3-(3-Fluoro-phenylamino)-6,7-dimethoxy-4H-indeno[1,2-c]pyrazol-1-yl]-2-hydroxy-ethanone] |  | 96 nM | 
